Test results from patent US20120309798A1, “Tumour Treatment Agents and Method” (Vivolux AB, priority 2009, published 2012).

Test system: cells from CLL and normal PBMC
Assay: Tumor cell specificity: drug effect in CLL cells versus normal PBMC, FMCA
Assay type: cell-based, human
Conditions: PBMC n=4, CLL n=9; t-test, p<0.05; FIG. 2c
From the text: (§1) Cell culture. Patient tumor samples (98) and preparations (4) of normal peripheral blood mononuclear cells (PBMC), detailed in Table 1, were used to determine the activity of VLX50 and, for comparison, six other cytotoxic drugs chosen to represent different mechanistic classes.
(§2) The tumor samples were obtained by bone marrow/peripheral blood sampling, routine surgery or diagnostic biopsy. Leukemic cells and PBMCs were isolated by 1.077 g ml-1 Ficoll-Paque centrifugation (Larsson et al., 1992). Tumor tissue from solid tumor samples was minced into small pieces and tumor cells were isolated by collagenase dispersion followed by Percoll density gradient centrifugation (Csoka et al., 1994). The sampling of primary tumor cells was approved by the local ethics committee at Uppsala University Hospital. Cell viability was determined by trypan blue exclusion test and the proportion of tumor cells in the preparation was judged by inspection of May-Grunvald-Giemsa stained cytospin slides (FIG. 1a). All samples used in this study contained more than 70% tumor cells.
Fluorometric Microculture Cytotoxicity Assay. The Fluorometric Microculture Cytotoxicity Assay, FMCA, described in detail previously (Lindhagen et al., 2008), is based on measurement of fluorescence generated from hydrolysis of fluorescein diacetate (FDA) to fluorescein by cells with intact plasma membranes. Cells were seeded in the drug-prepared 384-well plates using the pipetting robot Precision 2000 (Bio-Tek Instruments Inc., Winooski, Vt.). The number of cells per well were 2500-5000. Two columns without drugs served as controls and one column with medium only served as blank. The plates were incubated for 72 h and then transferred to an integrated HTS SAIGAN Core System consisting of an ORCA robot (Beckman Coulter) with CO2 incubator (Cytomat 2C, Kendro, Sollentuna, Sweden), dispensor module (Multidrop 384, Titertek, Huntsville, Ala.), washer module (ELx 405, Bio-Tek Instruments Inc), delidding station, plate hotels, barcode reader (Beckman Coulter), liquid handler (Biomek 2000, Beckman Coulter) and a multipurpose reader (FLUOstar Optima, BMG Labtech GmbH, Offenburg, Germany) for automated FMCA. Quality criteria for a successful assay included a mean coefficient of variation of less than 30% in the control and a fluorescence signal in control wells of more than 5 times the blank.
Dose-response data were analyzed using calculated survival index values and the software program GraphPadPrism4 (GraphPad Software Inc., San Diego, Calif., USA). Data was processed using non-linear regression to a standard sigmoidal dose-response model to obtain IC50-values (inhibitory concentration 50%).
In FIG. 2a the response rates for VLX50 at 4 μM for the patient samples are listed according to diagnoses. […] Lung cancer, AML and CML had intermediate response rates. The relative effect of VLX50 and six standard cytotoxic drugs, in solid and hematological tumor samples, expressed as the S/H ratio, is shown in FIG. 2b. […] The results for the standard drugs are consistent with their main clinical use.

| SMILES | Activity in CLL compared with PBMC |
| --- | --- |
| N.N.[Cl][Pt][Cl] [cisplatin, reference compound] | No difference |
| Nc1ccn([C@@H]2O[C@H](CO)[C@@H](O)[C@@H]2O)c(=O)n1 [cytarabin] | significantly higher activity in PBMC than in CLL cells |
| COc1cccc2c1C(=O)c1c(O)c3c(c(O)c1C2=O)C[C@@](O)(C(=O)CO)C[C@@H]3O[C@H]1C[C@H](N)[C@H](O)[C@H](C)O1 [doxorubicin] | No difference |
| COc1cc([C@@H]2c3cc4c(cc3[C@@H](O[C@@H]3O[C@@H]5CO[C@@H](C)O[C@H]5[C@H](O)[C@H]3O)[C@H]3COC(=O)[C@H]23)OCO4)cc(OC)c1O [etoposide] | No difference |
| N[C@@H](Cc1ccc(N(CCCl)CCCl)cc1)C(=O)O [melphalan] | significantly higher activity in PBMC than in CLL cells |
| CC[C@]1(O)C[C@H]2CN(CCc3c([nH]c4ccccc34)[C@@](C(=O)OC)(c3cc4c(cc3OC)N(C=O)[C@H]3[C@@](O)(C(=O)OC)[C@H](OC(C)=O)[C@]5(CC)C=CCN6CC[C@]43[C@@H]65)C2)C1 [vincristine] | significantly more active in CLL than in PBMC |

Test system: solid and hematological patient tumor samples
Assay: Relative effect on solid and hematological tumor samples (S/H ratio), FMCA
Assay type: cell-based, human
Conditions: n=98 patient samples; FIG. 2b
From the text: as §1
as §2, with “The sampling of primary tumor cells was approved by the local ethics committee at Uppsala University Hospital.” left out, “All samples used in this study contained more than 70% tumor cells.” left out
Fluorometric Microculture Cytotoxicity Assay. The Fluorometric Microculture Cytotoxicity Assay, FMCA, described in detail previously (Lindhagen et al., 2008), is based on measurement of fluorescence generated from hydrolysis of fluorescein diacetate (FDA) to fluorescein by cells with intact plasma membranes. […] Quality criteria for a successful assay included a mean coefficient of variation of less than 30% in the control and a fluorescence signal in control wells of more than 5 times the blank. […]

| SMILES | S/H ratio (ratio between total response rates for solid and hematological samples) |
| --- | --- |
| N.N.[Cl][Pt][Cl] [cisplatin, reference compound] | 1.2 |
